Columns and labels:
Assay in all cases: Herbicidal effect test by soil treatment
Assay type in all cases: in vivo
[1] = test system: annual sedge (Cyperus microiria); details: three weeks after spraying
Source text: (§1) In a plastic box of 15 cm length, 22 cm width and 6 cm depth, there was placed a sterilized dilvial soil, and seeds of barnyardgrass (Echinochloa crusgalli), large crabgrass (Digitaria adscendens), annual sedge (Cyperus microiria), black nightshade (Solanum nigrum L.), hairly galinosoga (Galinsoga ciliat), rorippa ssp. (Rorippa atrovirens), rice (Oryza sativa), corn (Zea mays), wheat (Triticum aestivum), soybean (Glysine max) and cotton (Gossypium herbaceum) were sown mixedly. After covering soil to about 1 cm over the seeds, herbicides were sprayed evenly on the soil surface to predetermined proportions of the active ingredient In spraying, the wettable powder, emulsifiable concentrate, dry flowable or flowable in the above formulation examples were diluted with water and sprayed over the entire surface by means of a small sprayer. Three weeks after spraying, the herbicidal effect on crop plants including rice, corn, wheat, soybean, cotton and various kinds of weeds were examined according to the judgement criteria shown below. Judgement criteria
(§2) The above growth control rates are determined by measuring the top fresh weights of the treated plants and those of the non-treated plants, and culculated from the following formula: [formula]

[2] = test system: black nightshade (Solanum nigrum L.); details: three weeks after spraying
Source text: as §1, §2

corn (Zea mays) = details: crop plant, three weeks after spraying
Source text: as §1, §2

[3] = test system: cotton (Gossypium herbaceum); details: crop plant, three weeks after spraying
Source text: as §1, §2

[4] = test system: hairly galinosoga (Galinsoga ciliat); details: three weeks after spraying
Source text: as §1, §2

[5] = test system: large crabgrass (Digitaria adscendens); details: three weeks after spraying
Source text: as §1, §2

rice (Oryza sativa) = details: crop plant, three weeks after spraying
Source text: as §1, §2

[6] = test system: rorippa ssp. (Rorippa atrovirens); details: three weeks after spraying
Source text: as §1, §2

soybean (Glysine max) = details: crop plant, three weeks after spraying
Source text: as §1, §2

[7] = test system: wheat (Triticum aestivum); details: crop plant, three weeks after spraying
Source text: as §1, §2

## C#CCN1C(=O)COc2ccc(N3C(=O)CC(C(F)(F)F)CC3=O)cc21 [1-24]
[1]; application amount 0.4 g/a
  herbicidal effect, K (Cyperus microiria): 5 (Growth control,rates of more than 90% (almost completely withered))
[1]; application amount 0.8 g/a
  herbicidal effect, K (Cyperus microiria): 5 (Growth control,rates of more than 90% (almost completely withered))
[1]; application amount 1.6 g/a
  herbicidal effect, K (Cyperus microiria): 5 (Growth control,rates of more than 90% (almost completely withered))
[2]; application amount 0.4 g/a
  herbicidal effect, H (Solanum nigrum L.): 5 (Growth control,rates of more than 90% (almost completely withered))
[2]; application amount 0.8 g/a
  herbicidal effect, H (Solanum nigrum L.): 5 (Growth control,rates of more than 90% (almost completely withered))
[2]; application amount 1.6 g/a
  herbicidal effect, H (Solanum nigrum L.): 5 (Growth control,rates of more than 90% (almost completely withered))
Corn (Zea mays); application amount 0.4 g/a
  herbicidal effect, T (Zea mays): 0 (Growth control rates of less than 5% (substantially no effect))
Corn (Zea mays); application amount 0.8 g/a
  herbicidal effect, T (Zea mays): 2 (Growth control rates of 20 to 40%)
Corn (Zea mays); application amount 1.6 g/a
  herbicidal effect, T (Zea mays): 4 (Growth control rates of 70 to 90%)
[3]; application amount 0.4 g/a
  herbicidal effect, C (Gossypium herbaceum): 0 (Growth control rates of less than 5% (substantially no effect))
[3]; application amount 0.8 g/a
  herbicidal effect, C (Gossypium herbaceum): 1 (Growth control rates of 5 to 20%)
[3]; application amount 1.6 g/a
  herbicidal effect, C (Gossypium herbaceum): 3 (Growth control rates of 40 to 70%)
[4]; application amount 0.4 g/a
  herbicidal effect, D (Galinsoga ciliat): 5 (Growth control,rates of more than 90% (almost completely withered))
[4]; application amount 0.8 g/a
  herbicidal effect, D (Galinsoga ciliat): 5 (Growth control,rates of more than 90% (almost completely withered))
[4]; application amount 1.6 g/a
  herbicidal effect, D (Galinsoga ciliat): 5 (Growth control,rates of more than 90% (almost completely withered))
[5]; application amount 0.4 g/a
  herbicidal effect, M (Digitaria adscendens): 5 (Growth control,rates of more than 90% (almost completely withered))
[5]; application amount 0.8 g/a
  herbicidal effect, M (Digitaria adscendens): 5 (Growth control,rates of more than 90% (almost completely withered))
[5]; application amount 1.6 g/a
  herbicidal effect, M (Digitaria adscendens): 5 (Growth control,rates of more than 90% (almost completely withered))
Rice (Oryza sativa); application amount 0.4 g/a
  herbicidal effect, R (Oryza sativa): 1 (Growth control rates of 5 to 20%)
Rice (Oryza sativa); application amount 0.8 g/a
  herbicidal effect, R (Oryza sativa): 4 (Growth control rates of 70 to 90%)
Rice (Oryza sativa); application amount 1.6 g/a
  herbicidal effect, R (Oryza sativa): 5 (Growth control,rates of more than 90% (almost completely withered))
[6]; application amount 0.4 g/a
  herbicidal effect, I (Rorippa indica): 5 (Growth control,rates of more than 90% (almost completely withered))
[6]; application amount 0.8 g/a
  herbicidal effect, I (Rorippa indica): 5 (Growth control,rates of more than 90% (almost completely withered))
[6]; application amount 1.6 g/a
  herbicidal effect, I (Rorippa indica): 5 (Growth control,rates of more than 90% (almost completely withered))
Soybean (Glysine max); application amount 0.4 g/a
  herbicidal effect, S (Glysine max): 0 (Growth control rates of less than 5% (substantially no effect))
Soybean (Glysine max); application amount 0.8 g/a
  herbicidal effect, S (Glysine max): 0 (Growth control rates of less than 5% (substantially no effect))
Soybean (Glysine max); application amount 1.6 g/a
  herbicidal effect, S (Glysine max): 1 (Growth control rates of 5 to 20%)
[7]; application amount 0.4 g/a
  herbicidal effect, W (Triticum vulgare): 0 (Growth control rates of less than 5% (substantially no effect))
[7]; application amount 0.8 g/a
  herbicidal effect, W (Triticum vulgare): 1 (Growth control rates of 5 to 20%)
[7]; application amount 1.6 g/a
  herbicidal effect, W (Triticum vulgare): 4 (Growth control rates of 70 to 90%)

## CCOC(=O)c1cc(N2C(=O)CC(c3ccccc3)CC2=O)c(F)cc1Cl [1-29]
[1]; application amount 1.6 g/a
  herbicidal effect, K (Cyperus microiria): 5 (Growth control,rates of more than 90% (almost completely withered))
[1]; application amount 3.2 g/a
  herbicidal effect, K (Cyperus microiria): 5 (Growth control,rates of more than 90% (almost completely withered))
[1]; application amount 6.3 g/a
  herbicidal effect, K (Cyperus microiria): 5 (Growth control,rates of more than 90% (almost completely withered))
[2]; application amount 1.6 g/a
  herbicidal effect, H (Solanum nigrum L.): 5 (Growth control,rates of more than 90% (almost completely withered))
[2]; application amount 3.2 g/a
  herbicidal effect, H (Solanum nigrum L.): 5 (Growth control,rates of more than 90% (almost completely withered))
[2]; application amount 6.3 g/a
  herbicidal effect, H (Solanum nigrum L.): 5 (Growth control,rates of more than 90% (almost completely withered))
Corn (Zea mays); application amount 1.6 g/a
  herbicidal effect, T (Zea mays): 0 (Growth control rates of less than 5% (substantially no effect))
Corn (Zea mays); application amount 3.2 g/a
  herbicidal effect, T (Zea mays): 0 (Growth control rates of less than 5% (substantially no effect))
Corn (Zea mays); application amount 6.3 g/a
  herbicidal effect, T (Zea mays): 0 (Growth control rates of less than 5% (substantially no effect))
[3]; application amount 1.6 g/a
  herbicidal effect, C (Gossypium herbaceum): 0 (Growth control rates of less than 5% (substantially no effect))
[3]; application amount 3.2 g/a
  herbicidal effect, C (Gossypium herbaceum): 0 (Growth control rates of less than 5% (substantially no effect))
[3]; application amount 6.3 g/a
  herbicidal effect, C (Gossypium herbaceum): 0 (Growth control rates of less than 5% (substantially no effect))
[4]; application amount 1.6 g/a
  herbicidal effect, D (Galinsoga ciliat): 5 (Growth control,rates of more than 90% (almost completely withered))
[4]; application amount 3.2 g/a
  herbicidal effect, D (Galinsoga ciliat): 5 (Growth control,rates of more than 90% (almost completely withered))
[4]; application amount 6.3 g/a
  herbicidal effect, D (Galinsoga ciliat): 5 (Growth control,rates of more than 90% (almost completely withered))
Rice (Oryza sativa); application amount 1.6 g/a
  herbicidal effect, R (Oryza sativa): 0 (Growth control rates of less than 5% (substantially no effect))
Rice (Oryza sativa); application amount 3.2 g/a
  herbicidal effect, R (Oryza sativa): 0 (Growth control rates of less than 5% (substantially no effect))
Rice (Oryza sativa); application amount 6.3 g/a
  herbicidal effect, R (Oryza sativa): 0 (Growth control rates of less than 5% (substantially no effect))
[6]; application amount 1.6 g/a
  herbicidal effect, I (Rorippa indica): 5 (Growth control,rates of more than 90% (almost completely withered))
[6]; application amount 3.2 g/a
  herbicidal effect, I (Rorippa indica): 5 (Growth control,rates of more than 90% (almost completely withered))
[6]; application amount 6.3 g/a
  herbicidal effect, I (Rorippa indica): 5 (Growth control,rates of more than 90% (almost completely withered))
Soybean (Glysine max); application amount 1.6 g/a
  herbicidal effect, S (Glysine max): 0 (Growth control rates of less than 5% (substantially no effect))
Soybean (Glysine max); application amount 3.2 g/a
  herbicidal effect, S (Glysine max): 0 (Growth control rates of less than 5% (substantially no effect))
Soybean (Glysine max); application amount 6.3 g/a
  herbicidal effect, S (Glysine max): 0 (Growth control rates of less than 5% (substantially no effect))
[7]; application amount 1.6 g/a
  herbicidal effect, W (Triticum vulgare): 0 (Growth control rates of less than 5% (substantially no effect))
[7]; application amount 3.2 g/a
  herbicidal effect, W (Triticum vulgare): 0 (Growth control rates of less than 5% (substantially no effect))
[7]; application amount 6.3 g/a
  herbicidal effect, W (Triticum vulgare): 0 (Growth control rates of less than 5% (substantially no effect))
